Data taken from ChEMBL document CHEMBL1201862, “PubChem BioAssay data set” (2004).
Calls of active or inactive are those of the source.

Key:
[1] = biological target: Voltage-gated inwardly rectifying potassium channel KCNH2 (Homo sapiens, UniProt Q12809); test: hERG protection from proarrhythmic block, potency, dose response, cell-based, thallium flux (AID 2121); assay type: ADME
Streptokinase A = biological target: T1, Streptokinase A (Streptococcus pyogenes serotype M1, UniProt P10520); test: S. pyogenes streptokinase expression inhibitors, potency, dose response, plasminogen activation absorbance, OD405 (AID 1914); assay type: functional, Streptococcus pyogenes M1 GAS;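 also: secreted streptokinase activity via plasminogen activation per viability signal from cell pellet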
T1 sequence (P10520 whole entry): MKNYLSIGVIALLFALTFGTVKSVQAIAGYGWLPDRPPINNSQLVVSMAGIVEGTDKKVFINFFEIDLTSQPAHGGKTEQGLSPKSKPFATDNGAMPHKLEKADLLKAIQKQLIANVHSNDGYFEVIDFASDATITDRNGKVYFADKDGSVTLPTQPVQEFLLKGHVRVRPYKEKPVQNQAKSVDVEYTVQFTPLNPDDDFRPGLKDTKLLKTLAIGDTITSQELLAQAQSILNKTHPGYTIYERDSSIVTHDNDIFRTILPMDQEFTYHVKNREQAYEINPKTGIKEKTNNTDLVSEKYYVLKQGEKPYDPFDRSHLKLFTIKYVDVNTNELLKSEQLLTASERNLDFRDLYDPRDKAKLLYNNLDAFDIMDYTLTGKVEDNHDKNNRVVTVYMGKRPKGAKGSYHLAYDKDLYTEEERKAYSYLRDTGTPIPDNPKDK

[2] = tested on: Streptococcus sp. 'group A'; test: growth inhibition of control SK(-) GAS strain, dose response, counter-screen for streptokinase expression inhibitor project, luminescence, kanamycin, BacTiterGlo, confirmation (AID 1900); assay type: functional, organism-based
HEK293 [3] = test: inhibitors of LMP1-driven NF-kB reporter, dose response, cell-based, HEK293, luciferase, cherry-pick (AID 588343); assay type: functional; conditions: Homo sapiens
Streptococcus = test: Group A Streptococcus viability loss, dose response, counter-screen for streptokinase expression inhibitor project, luminescence, BacTiterGlo (AID 1915); assay type: functional, organism-based;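 also: potency for reduction of bacterial viability or growth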
[4] = insulin promoter down-regulators in MIN6 cells, imaging, high-content screening, mouse beta cells (AID 1628); assay type: functional
[5] = cytotoxicity in MIN6 insulinoma cells, dose response, cytotoxicity control, cell-based, mouse insulinoma (AID 2122); assay type: functional;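 also: confirmatory high-throughput counterscreen run to flag cytotoxic compounds; mouse MIN-6 beta cells carrying an insulin promoter eGFP reporter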
Phosphomannomutase 2 = Phosphomannomutase 2 (Homo sapiens, UniProt O15305); test: Counter screen SAR assay for PMM2 inhibitors via a fluorescence intensity assay. [Related pubchem assays (depositor defined):AID1545, AID1574]
[6] = biological target: T2, Mannose-6-phosphate isomerase (Homo sapiens, UniProt P34949); test: PMI enzyme inhibitors, confirmation, biochemical, fluorescence intensity (AID 1535)
T2 sequence (P34949 whole entry): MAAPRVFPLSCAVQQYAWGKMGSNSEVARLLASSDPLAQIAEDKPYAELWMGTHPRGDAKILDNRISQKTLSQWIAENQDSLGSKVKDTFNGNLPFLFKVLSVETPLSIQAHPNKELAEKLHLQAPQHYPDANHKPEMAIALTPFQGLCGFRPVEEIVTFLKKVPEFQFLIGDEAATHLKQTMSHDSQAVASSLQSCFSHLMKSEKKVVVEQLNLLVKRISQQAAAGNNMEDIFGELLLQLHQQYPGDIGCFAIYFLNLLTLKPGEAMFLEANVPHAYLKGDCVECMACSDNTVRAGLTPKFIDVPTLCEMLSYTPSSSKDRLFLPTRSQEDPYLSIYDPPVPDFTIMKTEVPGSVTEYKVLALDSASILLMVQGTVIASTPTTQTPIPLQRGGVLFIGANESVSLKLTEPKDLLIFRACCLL

[7] = biological target: T3, Kappa-type opioid receptor (Homo sapiens, UniProt P41145); test: KOR agonist analogs, imaging readout, SAR follow-up, image-based (AID 2359); assay type: functional
[8] = biological target: T3, Kappa-type opioid receptor; test: KOR antagonists by imaging, SAR follow-up, image-based (AID 2348); assay type: functional
[9] = biological target: T4, Delta-type opioid receptor (Homo sapiens, UniProt P41143); test: DOR agonists, SAR follow-up, image-based (AID 2370); assay type: functional
[10] = biological target: T4, Delta-type opioid receptor; test: DOR antagonists, SAR follow-up, image-based (AID 2357); assay type: functional
Mu-type opioid receptor [11] = biological target: T5, Mu-type opioid receptor (Homo sapiens, UniProt P35372); test: MOR agonists by imaging, SAR follow-up, image-based (AID 2352); assay type: functional
[12] = biological target: T3, Kappa-type opioid receptor; test: SAR analysis of small molecule agonists of the kappa opioid receptor via a luminescent beta-arrestin assay. [Related pubchem assays (depositor defined):AID1777, AID1786, AID1966, AID2133, AID2136, AID2348, AID2352, AID2357, AID2359, AID2370, AID2420, AID2478, AID2491, AID2492, AID2493, AID2497, AID2498, AID2500, AID449737, AID488822, AID488842]; assay type: functional
Mu-type opioid receptor [13] = biological target: T5, Mu-type opioid receptor; test: MOR antagonists, SAR follow-up, image-based (AID 2420); assay type: functional;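 also: compounds added before stimulation of receptor with agonist DAMGO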
CAAX prenyl protease 1 = CAAX prenyl protease 1 (Saccharomyces cerevisiae S288c, UniProt P47154); test: Ste24 protease inhibitors, dose response, biochemical, S. cerevisiae, plate reader, cherry-pick (AID 488815)
[14] = HEp-2 cell cytotoxicity, dose response, cytotoxicity control for RSV inhibitor project, HTS (AID 2410); assay type: functional; conditions: human respiratory syncytial virus
[15] = biological target: T6, Calpain-2 catalytic subunit (Sus scrofa, UniProt P43367); test: pig calpain II inhibitor potency, dose response, biochemical, fluorogenic peptide substrate (AID 1420); assay type: functional
T6 sequence (P43367 whole entry): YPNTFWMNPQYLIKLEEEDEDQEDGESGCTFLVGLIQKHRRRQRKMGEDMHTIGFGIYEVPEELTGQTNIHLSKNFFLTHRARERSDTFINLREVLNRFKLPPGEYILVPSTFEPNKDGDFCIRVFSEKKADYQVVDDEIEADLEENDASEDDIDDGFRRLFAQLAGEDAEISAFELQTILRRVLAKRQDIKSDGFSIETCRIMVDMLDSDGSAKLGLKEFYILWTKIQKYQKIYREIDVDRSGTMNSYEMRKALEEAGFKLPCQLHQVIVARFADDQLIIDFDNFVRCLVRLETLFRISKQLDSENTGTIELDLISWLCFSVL

[16] = growth induction of Burl-1 ts yeast mutant, dose response, counter-screen for SUMOylation pathway inhibitor project, whole organism, S. cerevisiae, luminescence (AID 463199); assay type: functional
[17] = growth suppression of PTEN-null colon cells, dose response, cell-based, HCT116 PTEN knockout (AID 1047); assay type: functional;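 also: HCT116 colon tumor cells with PTEN knocked out; cells exposed to compound for 60 hours before readout; potency for loss of cell viability measured by luminescence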
[18] = cytotoxicity toward NIH3T3 fibroblasts, dose response, counter-screen, cell-based, ATP luminescence, mouse fibroblasts (AID 2010); assay type: functional;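 also: cells exposed to compound for about 90 hours before reading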
[19] = Luminescence Cell-Based Dose Retest to Confirm Inhibitors of Cancer Stem Cells. [Related pubchem assays (depositor defined):AID2717, AID2721]; assay type: functional; conditions: Homo sapiens
HEK293 [20] = test: cells; conditions: Homo sapiens
[21] = growth suppression of beta-catenin-knockout colon cells, dose response, cell-based, HCT116, human colon tumor (AID 1045); assay type: functional;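 also: HCT116 colon tumor cells with beta catenin knocked out; cells exposed to compound for 60 hours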
[22] = inhibitors of intracellular T. cruzi replication, confirmation, NIH3T3 host cells, beta-gal luminescence (AID 2044); assay type: functional, cell-based;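 also: intracellular parasites grown in NIH/3T3 mouse fibroblasts as host cells; luminescent beta-galactosidase reporter signal from transgenic T. cruzi replicating inside host cells; inhibitors lower the luminescence signal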
[23] = biological target: Voltage-dependent T-type calcium channel subunit alpha-1H (Homo sapiens, UniProt O95180); assay type: functional;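 also: channel activity triggered by adding a high calcium stimulation buffer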
HEK293 [24] = test: cells; conditions: Homo sapiens; remark: listed apart in the source
[25] = biological target: T7, RNA-binding protein pos-1 (Caenorhabditis elegans, UniProt G5EF15); test: inhibitors of POS-1/mex-3 RNA binding, dose response, biochemical, fluorescence polarization (AID 1964);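 also: purified POS-1 fused to maltose binding protein made in E. coli; potency of compounds blocking POS-1 binding to fluorescent RNA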
T7 sequence (G5EF15 whole entry): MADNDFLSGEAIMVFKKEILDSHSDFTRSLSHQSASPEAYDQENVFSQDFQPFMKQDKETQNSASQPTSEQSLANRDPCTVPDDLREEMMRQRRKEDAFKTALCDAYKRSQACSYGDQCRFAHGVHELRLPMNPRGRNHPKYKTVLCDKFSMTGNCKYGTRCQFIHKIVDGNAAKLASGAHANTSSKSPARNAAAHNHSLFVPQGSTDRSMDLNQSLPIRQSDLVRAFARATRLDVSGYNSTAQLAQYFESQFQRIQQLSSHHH

[26] = biological target: Intestinal-type alkaline phosphatase (Homo sapiens, UniProt P09923); test: inhibition of human intestinal alkaline phosphatase – biochemical, dose response (AID 488876); assay type: functional
[27] = biological target: T8, Alkaline phosphatase, tissue-nonspecific isozyme (Homo sapiens, UniProt P05186); test: TNAP enzyme inhibition by screening hits, dose response, selectivity assay for mouse IAP inhibitor project, biochemical, human TNAP, uHTS hits (AID 488906); assay type: functional
T8 sequence (P05186 whole entry): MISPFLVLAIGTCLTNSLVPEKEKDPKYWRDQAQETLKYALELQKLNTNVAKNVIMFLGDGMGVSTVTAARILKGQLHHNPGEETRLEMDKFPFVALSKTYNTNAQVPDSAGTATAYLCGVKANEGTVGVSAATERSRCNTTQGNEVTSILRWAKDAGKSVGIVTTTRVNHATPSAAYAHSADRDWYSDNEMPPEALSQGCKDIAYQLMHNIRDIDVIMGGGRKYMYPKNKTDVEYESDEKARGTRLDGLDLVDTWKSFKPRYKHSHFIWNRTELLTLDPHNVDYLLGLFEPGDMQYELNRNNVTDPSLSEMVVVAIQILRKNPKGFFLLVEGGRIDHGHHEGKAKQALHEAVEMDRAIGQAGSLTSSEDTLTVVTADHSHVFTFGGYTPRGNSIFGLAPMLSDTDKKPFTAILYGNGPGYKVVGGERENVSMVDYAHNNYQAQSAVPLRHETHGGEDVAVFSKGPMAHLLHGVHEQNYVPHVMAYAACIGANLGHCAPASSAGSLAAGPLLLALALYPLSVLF

[28] = biological target: T9, Zinc finger protein mex-5 (Caenorhabditis elegans, UniProt Q9XUB2); test: MEX-5/TCR-2 RNA interaction inhibitors, dose response, biochemical, C. elegans, fluorescence polarization (AID 1960)
T9 sequence (Q9XUB2 whole entry): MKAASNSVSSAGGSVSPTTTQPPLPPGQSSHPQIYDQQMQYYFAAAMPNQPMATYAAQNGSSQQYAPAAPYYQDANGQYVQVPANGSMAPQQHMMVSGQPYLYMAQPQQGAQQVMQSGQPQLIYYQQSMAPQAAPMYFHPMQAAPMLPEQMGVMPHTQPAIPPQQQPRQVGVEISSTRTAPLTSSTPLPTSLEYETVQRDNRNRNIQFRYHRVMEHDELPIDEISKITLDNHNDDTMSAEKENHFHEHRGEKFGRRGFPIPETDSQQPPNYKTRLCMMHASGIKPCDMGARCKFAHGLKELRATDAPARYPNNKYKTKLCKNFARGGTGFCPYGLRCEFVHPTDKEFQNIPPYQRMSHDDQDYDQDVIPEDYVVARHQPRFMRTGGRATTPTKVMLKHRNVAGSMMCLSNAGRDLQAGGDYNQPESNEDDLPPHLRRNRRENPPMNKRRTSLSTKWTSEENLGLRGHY

Large T antigen = Large T antigen (Simian virus 40, UniProt P03070); assay type: functional, Betapolyomavirus macacae;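 also: Confirmatory-stage PubChem screen for compounds that inhibit SV40 T antigen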
[29] = biological target: Intestinal-type alkaline phosphatase (Mus musculus, UniProt P24822); test: PubChem AID 488785; assay type: functional
Candida albicans = test: growth inhibition of resistant C. albicans, dose response, CaCi-8, fluconazole, Alamar Blue, dry powder (AID 488807); assay type: functional, organism-based

T3 sequence (P41145 whole entry): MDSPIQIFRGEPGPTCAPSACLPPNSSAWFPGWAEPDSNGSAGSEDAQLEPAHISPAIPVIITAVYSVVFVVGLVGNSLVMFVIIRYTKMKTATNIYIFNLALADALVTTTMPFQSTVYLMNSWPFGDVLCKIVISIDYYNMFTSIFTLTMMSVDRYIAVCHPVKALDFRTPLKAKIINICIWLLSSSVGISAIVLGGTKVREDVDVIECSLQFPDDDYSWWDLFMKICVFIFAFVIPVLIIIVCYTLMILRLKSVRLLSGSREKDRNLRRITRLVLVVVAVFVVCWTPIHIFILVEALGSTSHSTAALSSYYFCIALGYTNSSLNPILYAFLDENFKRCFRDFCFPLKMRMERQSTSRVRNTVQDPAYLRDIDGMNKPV
T4 sequence (P41143 whole entry): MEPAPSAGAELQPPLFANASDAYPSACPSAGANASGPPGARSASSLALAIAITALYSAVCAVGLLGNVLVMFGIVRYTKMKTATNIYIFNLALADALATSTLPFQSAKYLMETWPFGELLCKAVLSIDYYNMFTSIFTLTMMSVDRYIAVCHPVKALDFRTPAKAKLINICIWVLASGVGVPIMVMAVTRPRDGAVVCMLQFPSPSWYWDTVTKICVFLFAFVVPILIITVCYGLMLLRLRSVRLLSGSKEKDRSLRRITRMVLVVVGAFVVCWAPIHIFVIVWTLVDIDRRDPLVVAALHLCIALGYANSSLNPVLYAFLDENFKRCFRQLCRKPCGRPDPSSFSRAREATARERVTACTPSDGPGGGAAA
T5 sequence (P35372 whole entry): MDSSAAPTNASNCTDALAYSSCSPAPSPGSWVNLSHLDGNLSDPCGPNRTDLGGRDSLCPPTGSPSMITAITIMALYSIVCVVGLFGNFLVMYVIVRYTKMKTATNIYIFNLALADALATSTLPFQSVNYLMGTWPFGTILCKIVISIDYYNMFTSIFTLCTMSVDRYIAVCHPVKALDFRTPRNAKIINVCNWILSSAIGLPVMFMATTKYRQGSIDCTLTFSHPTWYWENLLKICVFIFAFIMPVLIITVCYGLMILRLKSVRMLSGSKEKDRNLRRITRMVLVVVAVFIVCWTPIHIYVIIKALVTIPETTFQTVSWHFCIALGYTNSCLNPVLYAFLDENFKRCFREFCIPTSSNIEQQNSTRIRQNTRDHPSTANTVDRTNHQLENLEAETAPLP
Chain of CAAX prenyl protease 1 (P47154 whole entry): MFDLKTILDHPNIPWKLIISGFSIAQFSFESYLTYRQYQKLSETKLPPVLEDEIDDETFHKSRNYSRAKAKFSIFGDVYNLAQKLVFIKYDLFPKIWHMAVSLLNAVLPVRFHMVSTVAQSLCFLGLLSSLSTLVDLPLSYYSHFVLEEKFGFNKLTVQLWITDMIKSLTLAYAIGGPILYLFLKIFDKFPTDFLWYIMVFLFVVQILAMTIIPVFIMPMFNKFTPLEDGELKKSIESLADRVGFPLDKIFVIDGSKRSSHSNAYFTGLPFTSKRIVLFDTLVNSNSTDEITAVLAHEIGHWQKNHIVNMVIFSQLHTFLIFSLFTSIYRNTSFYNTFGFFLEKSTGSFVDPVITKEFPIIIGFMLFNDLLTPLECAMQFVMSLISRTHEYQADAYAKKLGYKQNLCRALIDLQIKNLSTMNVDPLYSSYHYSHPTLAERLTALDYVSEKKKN
Chain of Phosphomannomutase 2 (O15305 whole entry): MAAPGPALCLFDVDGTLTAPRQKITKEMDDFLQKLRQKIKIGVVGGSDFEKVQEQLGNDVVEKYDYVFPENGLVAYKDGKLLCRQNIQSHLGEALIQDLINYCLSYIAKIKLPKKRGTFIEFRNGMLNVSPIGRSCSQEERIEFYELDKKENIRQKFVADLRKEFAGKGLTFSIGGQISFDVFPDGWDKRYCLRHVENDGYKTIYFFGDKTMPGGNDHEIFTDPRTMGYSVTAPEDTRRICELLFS
Chain of Intestinal-type alkaline phosphatase (Homo sapiens, UniProt P09923) (P09923 whole entry): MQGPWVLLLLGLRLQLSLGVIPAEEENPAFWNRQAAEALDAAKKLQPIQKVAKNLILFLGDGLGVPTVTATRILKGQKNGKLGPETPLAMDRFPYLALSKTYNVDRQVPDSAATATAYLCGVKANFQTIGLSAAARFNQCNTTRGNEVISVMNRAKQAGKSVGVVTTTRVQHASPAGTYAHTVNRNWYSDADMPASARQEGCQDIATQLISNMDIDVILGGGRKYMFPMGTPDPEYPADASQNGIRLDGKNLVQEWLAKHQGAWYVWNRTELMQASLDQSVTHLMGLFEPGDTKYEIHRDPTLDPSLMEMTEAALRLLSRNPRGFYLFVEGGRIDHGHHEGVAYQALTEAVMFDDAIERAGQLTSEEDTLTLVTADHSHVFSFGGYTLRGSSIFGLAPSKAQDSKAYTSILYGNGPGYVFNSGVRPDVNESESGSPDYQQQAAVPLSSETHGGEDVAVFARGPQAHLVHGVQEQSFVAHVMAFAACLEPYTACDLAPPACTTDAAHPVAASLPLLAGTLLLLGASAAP
Chain of Intestinal-type alkaline phosphatase (Mus musculus, UniProt P24822) (P24822 whole entry): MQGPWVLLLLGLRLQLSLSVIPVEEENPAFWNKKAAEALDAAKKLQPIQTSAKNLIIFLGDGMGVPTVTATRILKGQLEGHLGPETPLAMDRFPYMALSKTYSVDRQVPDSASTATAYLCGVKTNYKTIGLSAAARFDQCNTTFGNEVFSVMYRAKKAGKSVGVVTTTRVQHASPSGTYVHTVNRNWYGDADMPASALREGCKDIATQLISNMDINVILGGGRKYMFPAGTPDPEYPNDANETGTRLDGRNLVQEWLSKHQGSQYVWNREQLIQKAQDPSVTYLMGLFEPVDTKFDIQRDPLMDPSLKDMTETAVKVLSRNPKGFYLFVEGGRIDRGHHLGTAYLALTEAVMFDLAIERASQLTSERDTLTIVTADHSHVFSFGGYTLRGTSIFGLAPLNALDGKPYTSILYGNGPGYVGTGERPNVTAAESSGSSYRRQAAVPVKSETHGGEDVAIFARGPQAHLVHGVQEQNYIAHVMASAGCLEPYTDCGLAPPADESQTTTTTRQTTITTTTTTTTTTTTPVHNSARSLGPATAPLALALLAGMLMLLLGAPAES
Chain of Large T antigen (P03070 whole entry): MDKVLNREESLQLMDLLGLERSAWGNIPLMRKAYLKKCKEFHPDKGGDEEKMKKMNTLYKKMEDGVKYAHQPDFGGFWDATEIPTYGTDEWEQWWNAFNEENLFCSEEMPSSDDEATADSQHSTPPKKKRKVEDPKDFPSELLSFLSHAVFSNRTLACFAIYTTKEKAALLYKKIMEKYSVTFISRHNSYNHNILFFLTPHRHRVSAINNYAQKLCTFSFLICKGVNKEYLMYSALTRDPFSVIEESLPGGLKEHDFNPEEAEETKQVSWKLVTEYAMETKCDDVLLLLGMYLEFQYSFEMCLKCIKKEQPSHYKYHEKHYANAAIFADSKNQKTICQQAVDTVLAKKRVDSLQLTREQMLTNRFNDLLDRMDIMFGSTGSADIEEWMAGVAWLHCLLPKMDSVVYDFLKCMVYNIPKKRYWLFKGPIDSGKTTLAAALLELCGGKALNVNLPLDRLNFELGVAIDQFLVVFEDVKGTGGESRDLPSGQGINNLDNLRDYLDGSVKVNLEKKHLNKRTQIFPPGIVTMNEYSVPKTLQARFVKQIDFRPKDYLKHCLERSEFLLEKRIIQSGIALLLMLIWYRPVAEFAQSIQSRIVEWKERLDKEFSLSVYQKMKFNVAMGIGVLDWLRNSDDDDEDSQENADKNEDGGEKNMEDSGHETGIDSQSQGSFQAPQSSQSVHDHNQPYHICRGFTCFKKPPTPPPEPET
Chain of Voltage-gated inwardly rectifying potassium channel KCNH2 (Q12809 whole entry): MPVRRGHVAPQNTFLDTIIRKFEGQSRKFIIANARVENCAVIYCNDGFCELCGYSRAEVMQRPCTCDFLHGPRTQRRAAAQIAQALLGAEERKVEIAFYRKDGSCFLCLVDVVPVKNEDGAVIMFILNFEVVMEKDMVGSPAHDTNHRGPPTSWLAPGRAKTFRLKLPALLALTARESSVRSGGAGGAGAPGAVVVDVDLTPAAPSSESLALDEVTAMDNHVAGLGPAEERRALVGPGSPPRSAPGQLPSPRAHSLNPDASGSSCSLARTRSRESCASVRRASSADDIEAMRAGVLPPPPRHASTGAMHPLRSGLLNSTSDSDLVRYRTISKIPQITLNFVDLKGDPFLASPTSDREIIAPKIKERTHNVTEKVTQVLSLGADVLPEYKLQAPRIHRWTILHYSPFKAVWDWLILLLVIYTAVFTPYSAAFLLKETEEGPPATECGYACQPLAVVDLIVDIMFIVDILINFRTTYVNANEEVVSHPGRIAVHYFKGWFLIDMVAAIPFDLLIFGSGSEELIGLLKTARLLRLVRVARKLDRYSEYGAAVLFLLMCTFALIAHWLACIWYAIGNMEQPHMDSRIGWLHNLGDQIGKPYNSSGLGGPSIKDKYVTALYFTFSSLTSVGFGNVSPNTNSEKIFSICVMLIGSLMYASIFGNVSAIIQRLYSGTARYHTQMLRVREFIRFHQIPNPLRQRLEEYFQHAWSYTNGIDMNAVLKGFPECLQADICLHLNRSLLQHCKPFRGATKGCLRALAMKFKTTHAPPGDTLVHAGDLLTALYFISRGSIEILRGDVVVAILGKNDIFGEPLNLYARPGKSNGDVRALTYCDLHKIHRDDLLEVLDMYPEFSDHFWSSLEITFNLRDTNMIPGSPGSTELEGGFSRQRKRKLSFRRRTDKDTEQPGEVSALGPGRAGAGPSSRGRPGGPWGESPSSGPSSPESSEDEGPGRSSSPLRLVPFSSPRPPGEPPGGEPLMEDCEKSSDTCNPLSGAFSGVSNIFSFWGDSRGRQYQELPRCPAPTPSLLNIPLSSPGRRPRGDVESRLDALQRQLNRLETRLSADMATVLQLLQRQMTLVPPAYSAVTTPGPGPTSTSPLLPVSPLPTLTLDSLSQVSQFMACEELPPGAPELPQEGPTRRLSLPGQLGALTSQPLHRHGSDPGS

Compound: Oc1c(N=NC(S)=Nc2ccccc2F)c2ccccc2n1Cc1ccccc1
- EC50 [1]: 0.89 µM (active)
- EC50 (Streptokinase A): > 150 µM (not active)
- EC50 [2]: 0.562 µM (active)
- AC50 (HEK293 [3]): 3.07 µM (active)
- EC50 (Streptococcus): 6.93 µM (active)
- IC50 [4]: 6.95 µM (active)
- IC50 [5]: 10.1 µM (inactive)

Compound: COc1ccc(C)c(/N=c2\ssnc2Cl)c1
- IC50 (Phosphomannomutase 2): > 100 µM (inactive)
- IC50 [6]: 49.9 µM (active)

Compound: O=C(c1ccccn1)N(Cc1cc2ccccc2[nH]c1=O)C1CCCCC1
- EC50 [7]: 18.1 µM (inactive)
- IC50 [8]: > 32 µM (inactive)
- EC50 [9]: > 32 µM (inactive)
- IC50 [10]: > 32 µM (inactive)
- EC50 (Mu-type opioid receptor [11]): > 32 µM (inactive)
- EC50 [12]: > 10 µM (inactive)
- IC50 (Mu-type opioid receptor [13]): > 32 µM (inactive)

Compound: Cc1ccc(Nc2nc(-c3ccc(S(=O)(=O)N4CCOCC4)cc3)cs2)cc1Cl
- AC50 (CAAX prenyl protease 1): > 100 µM (inactive)
- CC50 [14]: 4.91 µM (active)
- IC50 [15]: 9.54 µM (active)

Compound: O=C(O)/C=C\C(=O)NC1CCCCC1
- AC50 [16]: 54.1 µM (active)

Compound: CCN(CC)S(=O)(=O)c1ccc2c(c1)C(=NO)c1cc(S(=O)(=O)N(CC)CC)ccc1-2
- EC50 [17]: 6.41 µM (active)
- EC50 [18]: < 6 µM (inconclusive)
- AC50 [19]: 0.742 µM (active)
- CC50 [14]: 9.81 µM (active)
- IC50 (cells): 5.19 µM (active)
- EC50 (HEK293 [20]): > 59.6 µM (inactive)
- EC50 [21]: 7.08 µM (active)
- EC50 [22]: 0.84 µM (active)
- EC50 [23]: 1.6 µM (active)
- EC50 (HEK293 [24]): > 59.6 µM (inactive)

Compound: O=C1CNC(=S)N1CCc1ccc(O)c(O)c1
- EC50 [25]: > 300 µM (not active)
- IC50 [26]: > 100 µM (inactive)
- IC50 [27]: > 100 µM (inactive)
- EC50 [28]: 26.8 µM (active)
- IC50 (Large T antigen): 39.6 µM (active)
- IC50 [29]: 6 µM (active)

Compound: COC(=O)Cn1nc(-c2ccc(C)cc2)c2ccccc21
- AC50 (Candida albicans): 1.45 µM (active)
